Measurements published in patent US20220079931A1, “ESTROGEN RECEPTOR PROTEIN DEGRADERS” (THE REGENTS OF THE UNIVERSITY OF MICHIGAN, priority 2019, published 2022).

Columns and labels:
VHL-ElonginBC complex = molecular target: T1, VHL-ElonginBC complex (Homo sapiens, UniProt P40337); experiment: Fluorescence-polarization (FP) competitive binding assay for VHL; conditions: VHL ligands; VHL-ElonginBC complex and fluorescent probe both 5 nM; read-out: FP Binding affinity IC50
T1 construct: His-TEV (His-tag with TEV protease site) (cleaved yes); made in house; host or cells: E. coli BL21(DE3)
Description: Cloning and Purification of VHL-ElonginBC complex. The DNA sequence of VHL (coding for residues 54-213) was constructed by PCR and inserted into a His-TEV expression vector^58 using ligation-independent cloning. The DNA sequences of Elongin B (encoding residues 1-118) and Elongin C (encoding residues 1-96) were constmcted by PCR and inserted into pCDFDuet 1 using Gibson assembly.^59 BL21(DE3) cells were transformed simultaneously with both plasmids and grown in Terrific Broth at 37° C. until an OD600 of 1.2. The cells were induced overnight with 0.4 mM IPTG at 24° C. Pelleted cells were freeze-thawed then resuspended in 20 mM Tris HCl pH7.0, 200 mM NaCl and 0.1% β-mercaptoethanol (bME) containing protease inhibitors. The cell suspension was lysed by sonication and debris removed via centrifugation. The supernatant was incubated at 4° C. for 1 hr with Ni-NTA (Qiagen) pre-washed in 20 mM Tris-HCl pH 7.0, 200 mM NaCl and 10 mM Imidazole. The protein complex was eluted in 20 mM Tris-HCl pH 7.0, 200 mM NaCl and 300 mM Imidazole, dialyzed into 20 mM Tris-HCl pH 7.0, 150 mM NaCl, and 0.01% bME and incubated with TEV protease overnight at 4° C. The protein sample was reapplied to the Ni-NTA column to remove the His-tag. The flow through containing the VHL complex was diluted to 75 mM NaCl and applied to a HiTrap Q column (GE Healthcare). The sample was eluted with a salt gradient (0.075-1 M NaCl), concentrated and further purified on a Superdex S75 column (GE Healthcare) pre-equilibrated with 20 mM Bis-Tris 7.0, 150 mM NaCl and 1 mM DTT. Samples were aliquoted and stored at −80° C.
Binding Affinities of VHL ligands to VHL. A fluorescence-polarization (FP) competitive assay was established using VHL-ElonginBC complex and a fluorescently tagged probe (SI). The IC50 and Ki values of VHL ligands were determined in competitive binding experiments. Mixtures of 5 μL of compounds in DMSO and 95 μL of preincubated protein/tracer complex solution were added into assay plates which were incubated at rt for 60 min with gentle shaking. Final concentrations of VHL-ElonginBC complex and fluorescent probe were both 5 nM. Negative controls containing protein/probe complex only (equivalent to 0% inhibition) and positive controls containing only free probes (equivalent to 100% inhibition) were included in each assay plate. FP values in millipolarization units (mP) were measured using the Infinite M-1000 plate reader (Tecan U.S., Research Triangle Park, N.C.) in Microfluor 1 96-well, black, round-bottom plates (Thermo Scientific, Waltham, Mass.) at an excitation wavelength of 485 nm and an emission wavelength of 530 nm. IC50 values were determined by nonlinear regression fitting of the competition curves. Ki values of competitive inhibitors were obtained directly by nonlinear regression fitting, based upon the KD values of the probe and concentrations of the protein and probe in the competitive assays. All the FP competitive experiments were performed in duplicate in three independent experiments.

MCF-7 cells = experiment: WST-8 cell proliferation assay in MCF-7 cells; type: cell-based, human; conditions: MCF-7 cells, WST-8, 4 days
Description: (§1) Cell Culture. Human breast cancer cell lines MCF-7 (ATCC® HTB-22™) and T47D (ATCC® HTB-133™) were purchased from the American Type Culture Collection (ATCC), Manassas, Va., and maintained and cultured in Dulbecco's Modified Eagle's medium (DMEM) containing 10% fetal bovine serum, 1 unit/ml of penicillin and 1 μg/ml of streptomycin. Cells with 3-8 passages after purchase were used in experiments as indicated.
Cell Growth Assay. Cells were seeded at 1500/well in 96 well plates overnight. One day after seeding, they were treated with indicated doses of compounds. The growth of the cells was evaluated by colorimetric WST-8 assay 4 days after the compound treatment following the instructions of the manufacturer, Cayman Chemical, Ann Arbor, Mich.
Fulvestrant achieves an Imax value of 43.8%. […] RAD1901, a previously reported SERD molecule^18, achieves an Imax value of 25.7%.

ERα [1] = molecular target: T2, ERα (Homo sapiens, UniProt P03372); experiment: Mechanism of ER degradation: pretreatment with VHL ligand, ER ligand or proteasome inhibitor, Western blotting in MCF-7 cells; type: cell-based; design: host or cells: MCF-7; conditions: 1 μM, alone
T2 sequence (P03372 1-595): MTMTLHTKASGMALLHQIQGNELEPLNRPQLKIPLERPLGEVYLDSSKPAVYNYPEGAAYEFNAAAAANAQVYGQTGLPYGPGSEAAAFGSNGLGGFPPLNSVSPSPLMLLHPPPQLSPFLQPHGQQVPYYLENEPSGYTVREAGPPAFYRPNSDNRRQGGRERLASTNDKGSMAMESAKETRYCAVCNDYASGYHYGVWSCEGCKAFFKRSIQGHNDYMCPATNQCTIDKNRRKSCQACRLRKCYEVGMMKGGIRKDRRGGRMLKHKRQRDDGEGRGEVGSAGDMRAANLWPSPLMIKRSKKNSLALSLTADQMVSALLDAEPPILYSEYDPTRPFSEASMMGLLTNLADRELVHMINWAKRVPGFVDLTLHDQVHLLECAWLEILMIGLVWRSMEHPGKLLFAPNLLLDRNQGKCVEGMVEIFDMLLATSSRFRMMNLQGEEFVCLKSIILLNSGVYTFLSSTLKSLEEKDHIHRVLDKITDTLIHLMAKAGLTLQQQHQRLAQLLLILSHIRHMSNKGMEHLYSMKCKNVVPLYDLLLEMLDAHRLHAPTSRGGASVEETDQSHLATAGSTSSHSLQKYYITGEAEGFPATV
Description: (§2) Then whole-cell lysates were analyzed by Western blotting.
as §2
Western Blot Analysis. […] Cells treated with indicated compounds were lysed in Radioimmunoprecipitation Assay Protein Lysis and Extraction Buffer (25 mmol/L Tris.HCl, pH 7.6, 150 mmol/L NaCl, 1% Nonidet P-40, 1% sodium deoxycholate, and 0.1% sodium dodecyl sulfate) containing proteinase inhibitor cocktail (Roche Diagnostics, Mannheim, Germany). After determination of protein concentration by BCA assay (Fisher Scientific, Pittsburgh, Pa.), equal amounts of total protein were electrophoresed through 10% SDS-polyacrylamide gels. The separated protein bands were transferred onto PVDF membranes (GE Healthcare Life Sciences, Marlborough, Mass.) and blotted against different antibodies, as indicated. The human estrogen receptor a antibodies (AB16460) were purchased from Abeam, Inc., Cambridge, Mass. The membranes were reblotted with horseradish peroxidase-conjugated anti-glyceraldehyde-3-phosphate dehydrogenase antibody (G9295) from Sigma-Aldrich Corporation, St. Louis, Mo. The blots were scanned and the band intensities were quantified using GelQuant.NET software as described in biochemlabsolutions.com. The relative mean intensity of target proteins was expressed after normalization to the intensity of glyceraldehyde-3-phosphate dehydrogenase bands from individual repeats.

[2] = background statement; cited from earlier work
[3] = background statement; cited from earlier work; remark: listed apart in the source
ERα [4] = molecular target: T2, ERα; experiment: ER degradation by Western blotting in MCF-7 cells; type: cell-based; design: host or cells: MCF-7; conditions: 30 nM
Description: FIG. 1 is an image showing the Western blotting analysis of ER protein in MCF-7 cells treated with Compounds of the Disclosure and control compounds. Cells were treated with different compounds for 4 h and whole cell lysates were then analyzed by Western blotting to examine the level of ER protein. GADPH protein was used for the loading control. The numbers below the panel represent the ERα/GADPH ratio normalized with the DMSO control at 100.
FIG. 2 is an image showing the Western blotting analysis of ER protein in the MCF-7 cells treated with indicated compounds at 1 nM, 10 nM and 100 nM. MCF-7 cells were treated with different compounds for 4 h and whole cell lysates were analyzed by Western blotting to examine the level of ER protein. GADPH protein was used for the loading control. The numbers below the panel represent the ERα/GADPH ratio normalized with the DMSO control at 100.
FIG. 7 is an image showing the ERα degradation dose-response Western blotting for compound 32 at 4 h in MCF-7 cells.
FIG. 9 is an image showing the time course of ERα degradation by Western blotting by compound 32 (30 nM) and fulvestrant (30 nM) in the MCF-7 cells.
as §1
Western Blot Analysis. Western blot analysis was performed essentially as described previously (Hu et al, 2015, PMID: 26358219). Cells treated with indicated compounds were lysed in Radioimmunoprecipitation Assay Protein Lysis and Extraction Buffer (25 mmol/L Tris.HCl, pH 7.6, 150 mmol/L NaCl, 1% Nonidet P-40, 1% sodium deoxycholate, and 0.1% sodium dodecyl sulfate) containing proteinase inhibitor cocktail (Roche Diagnostics, Mannheim, Germany). After determination of protein concentration by BCA assay (Fisher Scientific, Pittsburgh, Pa.), equal amounts of total protein were electrophoresed through 10% SDS-polyacrylamide gels. The separated protein bands were transferred onto PVDF membranes (GE Healthcare Life Sciences, Marlborough, Mass.) and blotted against different antibodies, as indicated. The human estrogen receptor a antibodies (AB16460) were purchased from Abeam, Inc., Cambridge, Mass. The membranes were reblotted with horseradish peroxidase-conjugated anti-glyceraldehyde-3-phosphate dehydrogenase antibody (G9295) from Sigma-Aldrich Corporation, St. Louis, Mo. The blots were scanned and the band intensities were quantified using GelQuant.NET software as described in biochemlabsolutions.com. The relative mean intensity of target proteins was expressed after normalization to the intensity of glyceraldehyde-3-phosphate dehydrogenase bands from individual repeats.

SMILES | IC50 (VHL-ElonginBC complex) [µM] | maximum inhibition (Imax) (MCF-7 cells) [%] | other results
CC(=O)N[C@H](C(=O)N1C[C@H](O)C[C@H]1C(=O)N[C@@H](C)c1ccc(C(C)(C)C)cc1)C(C)(C)C [48a, (2S,4R)-1-((S)-2-acetamido-3,3-dimethylbutanoyl)-N—((S)-1-(4-(tert-butyl)phenyl)ethyl)-4-hydroxypyrrolidine-2-carboxamide] | 58.9 ± 5.26 | – | –
CCNCCc1ccc(CN(CC)c2cc(OC)ccc2[C@@H]2CCc3cc(O)ccc3C2)cc1 [RAD1901] | – | 25.7 | –
CC(C)C[C@H](NC(=O)[C@H](CCc1ccccc1)NC(=O)CN1CCOCC1)C(=O)N[C@@H](Cc1ccccc1)C(=O)N[C@@H](CC(C)C)C(=O)[C@@]1(C)CO1 [carfilzomib, reference compound] | – | – | effect alone on ER protein levels (ERα [1]): no effect
CC(=O)N[C@H](C(=O)N1C[C@H](O)C[C@H]1C(=O)N[C@@H](C)c1ccc(-c2scnc2C)cc1)C(C)(C)C [compound 11, (2S,4R)-1-((S)-2-Acetamido-3,3-dimethylbutanoyl)-4-hydroxy-N—((S)-1-(4-(4-methylthiazol-5-yl)phenyl)ethyl)pyrrolidine-2-carboxamide, reference compound] | 0.196 ± 0.006 | – | –
C[C@]12CC[C@@H]3c4ccc(O)cc4C[C@@H](CCCCCCCCC[S+]([O-])CCCC(F)(F)C(F)(F)F)[C@H]3[C@@H]1CC[C@@H]2O (stereo partly shown) [fulvestrant] | – | 43.8 | oral bioavailability [2]: not orally bioavailable; solubility [3]: poor solubility; reduction of ER protein level at 1 h (ERα [4]; 1 h treatment): only a modest effect; maximum ER degradation in time course (ERα [4]; after a 24 h treatment): approximately 90%
O=C(c1ccc(OCCN2CCCCC2)cc1)c1c(-c2ccc(O)cc2)sc2cc(O)ccc12 [raloxifene] | – | 34.0 | –
